From US7101878B1 (Agouron Pharmaceuticals, Inc., priority 1998, dated 2006) come the findings set out here.

Read-outs that look alike come from different tables or passages of the source.

The target of this assay is T1, human GnRH receptor (Homo sapiens, UniProt P30968).
T1 construct: expressed in transfected cells; host or cells: HEK 293 (hGnRH-R/293, from Dr. Stuart Sealfon)
T1 sequence (P30968 1-328): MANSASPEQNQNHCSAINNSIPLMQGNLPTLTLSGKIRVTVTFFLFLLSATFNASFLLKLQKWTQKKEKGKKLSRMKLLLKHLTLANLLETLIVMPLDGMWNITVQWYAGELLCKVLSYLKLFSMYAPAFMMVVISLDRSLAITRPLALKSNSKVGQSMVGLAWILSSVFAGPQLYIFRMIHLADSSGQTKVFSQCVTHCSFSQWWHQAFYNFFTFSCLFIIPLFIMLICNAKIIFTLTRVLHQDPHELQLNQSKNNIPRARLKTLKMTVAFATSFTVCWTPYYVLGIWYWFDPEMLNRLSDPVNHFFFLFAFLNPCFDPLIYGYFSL
The assay is described as follows: Radioligand binding, 125I-GnRH-A displacement, membranes of HEK 293 cells with human GnRH receptor. The method, then: All compounds were diluted in 1% DMSO (final assay concentration) in binding assay buffer. […] Reactions were terminated by rapid filtration onto 96-well Packard GF/C filters soaked in 0.1% polyethyleneimine. Filters were washed three times with PBS buffer, dried and counted on a Packard Topcount by liquid scintillation counting.
Assay conditions were identical for assessing compound activities at other species. […] IC50 values for control peptides and test compounds were calculated utilizing GraphPad Prism™ software.
Crude compounds were tested using the competitive radioligand binding assay described above.
The reaction mixture was vortexed and incubated for 1 min at room temperature. After one min, the mixture was vortexed and allowed to incubate for an additional minute. 2 ml of 0.5 M acetic acid/1% BSA was added to the reaction tube and the mixture was added to a C18 Sep-Pak cartridge. The cartridge was washed with subsequent washes of 5 ml H2O and 5 ml 0.5M acetic acid and then eluted with 5×1 ml of 60% CH3CN/40% 0.5M acetic acid. The eluate was diluted with 3× volume of HPLC buffer A (0.1% TFA in H2O) and loaded onto a C18 column. The iodinated product was eluted over 20-25 min with a gradient of 25-100% CH3CN containing 0.1% TFA. The radioactive fractions (750 ed/fraction) are collected into clean polypropylene tubes containing 100 μl of 10% BSA. Fractions were assessed for biological activity by radioligand binding.
S%R is the substrate remaining.

Setting [1] is: 1 uM, read-out: % Inhib. @ 1 uM hGnRH.
[2] abbreviates: 1 h, repeat of % Inhib. at 1 uM, read-out: Repeats @ 1 uM hGnRH.

For `Cc1cc2c(cc1Cc1ccc(C(=O)NCC(c3ccccc3)c3ccccc3)o1)C(C)(C)CCC2(C)C`, the inhibition at 1 µM by setting is: under setting [1], -21%; under setting [2], -26%.
Take `Cc1cc2c(cc1Cc1ccc(C(=O)NC3=NN(c4c(Cl)cc(Cl)cc4Cl)C(=O)C3)o1)C(C)(C)CCC2(C)C`: the inhibition at 1 µM under setting [1] was -29% and the inhibition at 1 µM under setting [2] is -31%.
As to `Cc1cc2c(cc1Cc1ccc(C(=O)Nc3ccccc3C(=O)Nc3cnccn3)o1)C(C)(C)CCC2(C)C`, the inhibition at 1 µM reads like this: under setting [1], -27%; under setting [2], -29%.
The like results for `Cc1cc2c(cc1Cc1ccc(C(=O)NCCCNCc3ccc(Cl)cc3)o1)C(C)(C)CCC2(C)C` were, in that order, -10% and -8%.
As for `CC(=O)C1CCN(C(=O)c2ccc(Cc3cc4c(cc3C)C(C)(C)CCC4(C)C)o2)CC1`, the inhibition at 1 µM runs as follows: under setting [1], 59%; under setting [2], 66%.
On to `Cc1cc2c(cc1Cc1ccc(C(=O)Nc3nccc(Nc4cc(C(F)(F)F)cc(C(F)(F)F)c4)n3)o1)C(C)(C)CCC2(C)C`, for which the inhibition at 1 µM runs as follows: under setting [1], -29%; under setting [2], -30%.
For `Cc1cc2c(cc1Cc1ccc(C(=O)NCc3cccc4c3Cc3ccccc3-4)o1)C(C)(C)CCC2(C)C`, the inhibition at 1 µM is, setting by setting: under setting [1], -21%; under setting [2], -23%.
In the case of `Cc1cc2c(cc1Cc1ccc(C(=O)NCCCCCC(=O)O)o1)C(C)(C)CCC2(C)C`, the inhibition at 1 µM reads like this: under setting [1], -12%; under setting [2], -9%.
For the compound `Cc1cc2c(cc1Cc1ccc(C(=O)NCc3cc4c5ccccc5n(Cc5cc(Cl)ccc5Cl)c4cn3)o1)C(C)(C)CCC2(C)C`, the inhibition at 1 µM runs as follows: under setting [1], -34%; under setting [2], -38%.
For the compound `Cc1cc2c(cc1Cc1ccc(C(=O)NCCCCCN3CCOCC3)o1)C(C)(C)CCC2(C)C`, the inhibition at 1 µM under setting [1] was -14% and the inhibition at 1 µM under setting [2] was -5%.
The matching figures for `Cc1cc2c(cc1Cc1ccc(C(=O)N3CCN(c4nccc(NCC5CCCO5)n4)CC3)o1)C(C)(C)CCC2(C)C` (stereo not shown): 22% and 25%.
`Cc1cc2c(cc1Cc1ccc(C(=O)NCCc3ccc(-c4ccccc4)cc3)o1)C(C)(C)CCC2(C)C`: the inhibition at 1 µM is, setting by setting: under setting [1], -17%; under setting [2], -31%.
`Cc1cc2c(cc1Cc1ccc(C(=O)NCCNCCN3CCCC3)o1)C(C)(C)CCC2(C)C`: the inhibition at 1 µM under setting [1] is -5% and the inhibition at 1 µM under setting [2] was found to be 0%.
The like results for `Cc1cc2c(cc1Cc1ccc(C(=O)NC3CCCCC3Cc3nccc(NCC4CCCO4)n3)o1)C(C)(C)CCC2(C)C` (stereo not shown) were, in that order, -21% and -5%.
With `Cc1cc2c(cc1Cc1ccc(C(=O)NC3CCCCC3Cc3ccnc(NCC4CCCO4)n3)o1)C(C)(C)CCC2(C)C` (stereo not shown), the inhibition at 1 µM reads like this: under setting [1], 11%; under setting [2], 13%.
The like results for `Cc1cc2c(cc1Cc1ccc(C(=O)NCC3CCCC(CNc4cccc(NCC5CCCO5)n4)C3)o1)C(C)(C)CCC2(C)C` (stereo not shown) were, in that order, 84% and 89%.
The like results for `Cc1cc2c(cc1Cc1ccc(C(=O)NCCc3c[nH]c4ccc(OCc5ccccc5)cc34)o1)C(C)(C)CCC2(C)C` were, in that order, -6% and -7%.
`Cc1cc2c(cc1Cc1ccc(C(=O)NCCNc3cccc(NCC4CCCO4)n3)o1)C(C)(C)CCC2(C)C` (stereo not shown): the inhibition at 1 µM under setting [1] amounted to 18% and the inhibition at 1 µM under setting [2] amounted to 22%.
The matching figures for `Cc1cc2c(cc1Cc1ccc(C(=O)NC3CCN(Cc4ccccc4)CC3)o1)C(C)(C)CCC2(C)C`: -12% and 14%.
The like results for `Cc1cc2c(cc1Cc1ccc(C(=O)NC(CO)C(O)c3ccccc3)o1)C(C)(C)CCC2(C)C` (stereo not shown) were, in that order, -1% and 12%.
The matching figures for `Cc1cc2c(cc1Cc1ccc(C(=O)N(Cc3ccccc3)Cc3ccccc3)o1)C(C)(C)CCC2(C)C`: -2% and 3%.
Turning to `Cc1cc2c(cc1Cc1ccc(C(=O)N(C)Cc3ccccc3)o1)C(C)(C)CCC2(C)C`, the inhibition at 1 µM is, setting by setting: under setting [1], -7%; under setting [2], 4%.
The like results for `Cc1cc2c(cc1Cc1ccc(C(=O)NC(CO)Cc3ccc(Cl)cc3)o1)C(C)(C)CCC2(C)C` (stereo not shown) were, in that order, 16% and 3%.
Consider `Cc1cc2c(cc1Cc1ccc(C(=O)NC(Cc3ccccc3)c3ccccc3)o1)C(C)(C)CCC2(C)C` (stereo not shown), for which the inhibition at 1 µM under setting [1] worked out at 13% and the inhibition at 1 µM under setting [2] is 19%.
The like results for `Cc1cc2c(cc1Cc1ccc(C(=O)NC(CO)c3ccccc3)o1)C(C)(C)CCC2(C)C` (stereo not shown) were, in that order, 17% and 26%.
Turning to `Cc1cc2c(cc1Cc1ccc(C(=O)N[C@H](CO)c3ccccc3)o1)C(C)(C)CCC2(C)C`, the inhibition at 1 µM by setting is: under setting [1], 15%; under setting [2], 26%.
On to `Cc1cc2c(cc1Cc1ccc(C(=O)N[C@H](C)[C@@H](O)c3ccccc3)o1)C(C)(C)CCC2(C)C`, for which the inhibition at 1 µM runs as follows: under setting [1], 19%; under setting [2], 25%.
The like results for `Cc1cc2c(cc1Cc1ccc(C(=O)N(C)[C@@H](C)[C@H](C)c3ccccc3)o1)C(C)(C)CCC2(C)C` were, in that order, -7% and 4%.
The matching figures for `Cc1cc2c(cc1Cc1ccc(C(=O)N(C)[C@@H](C)[C@@H](O)c3ccccc3)o1)C(C)(C)CCC2(C)C`: -11% and -9%.
The matching figures for `Cc1cc2c(cc1Cc1ccc(C(=O)N(C)[C@H](C)[C@H](O)c3ccccc3)o1)C(C)(C)CCC2(C)C`: -10% and -6%.
Consider `Cc1cc2c(cc1Cc1ccc(C(=O)N(C)[C@H](C)[C@@H](O)c3ccccc3)o1)C(C)(C)CCC2(C)C`, for which the inhibition at 1 µM runs as follows: under setting [1], 20%; under setting [2], 23%.
The like results for `COc1ccc(C(O)C(CO)NC(=O)c2ccc(Cc3cc4c(cc3C)C(C)(C)CCC4(C)C)o2)cc1` (stereo not shown) were, in that order, -11% and 24%.
With `Cc1cc2c(cc1Cc1ccc(C(=O)NCc3ccccc3OC(F)(F)F)o1)C(C)(C)CCC2(C)C`, the inhibition at 1 µM is, setting by setting: under setting [1], 1%; under setting [2], 41%.
The like results for `COc1cccc(OC)c1CNC(=O)c1ccc(Cc2cc3c(cc2C)C(C)(C)CCC3(C)C)o1` were, in that order, -3% and 2%.
The like results for `Cc1cc2c(cc1Cc1ccc(C(=O)N(C)CCc3ccccn3)o1)C(C)(C)CCC2(C)C` were, in that order, -11% and -7%.
Turning to `Cc1cc2c(cc1Cc1ccc(C(=O)N(CCc3ccccc3)Cc3ccccc3O)o1)C(C)(C)CCC2(C)C`, the inhibition at 1 µM is -20% under setting [1] and -30% under setting [2].
The matching figures for `CCN(Cc1ccncc1)C(=O)c1ccc(Cc2cc3c(cc2C)C(C)(C)CCC3(C)C)o1`: 10% and 2%.
On to `COc1ccccc1CC(C)N(C)C(=O)c1ccc(Cc2cc3c(cc2C)C(C)(C)CCC3(C)C)o1` (stereo not shown), for which the inhibition at 1 µM is -7% under setting [1] and 15% under setting [2].
As for `CCCCN(Cc1ccccc1)C(=O)c1ccc(Cc2cc3c(cc2C)C(C)(C)CCC3(C)C)o1`, the inhibition at 1 µM was -7% under setting [1] and 9% under setting [2].
Regarding `Cc1cc2c(cc1Cc1ccc(C(=O)N(CCO)Cc3ccccc3)o1)C(C)(C)CCC2(C)C`, the inhibition at 1 µM under setting [1] was -10% and the inhibition at 1 µM under setting [2] is -5%.
Consider `Cc1cc2c(cc1Cc1ccc(C(=O)N(CC(O)c3ccccc3)C3CCCCC3)o1)C(C)(C)CCC2(C)C` (stereo not shown), for which the inhibition at 1 µM was -12% under setting [1] and -9% under setting [2].
`COc1ccc(C(NC(=O)c2ccc(Cc3cc4c(cc3C)C(C)(C)CCC4(C)C)o2)c2ccc(OC)cc2)cc1`: the inhibition at 1 µM by setting is: under setting [1], 31%; under setting [2], 42%.
Turning to `Cc1cc2c(cc1Cc1ccc(C(=O)NCCC(=O)NC(c3ccccc3)c3ccccc3)o1)C(C)(C)CCC2(C)C`, the inhibition at 1 µM reads like this: under setting [1], -23%; under setting [2], -8%.
With `Cc1cc2c(cc1Cc1ccc(C(=O)NCCCC(=O)NC(c3ccccc3)c3ccccc3)o1)C(C)(C)CCC2(C)C`, the inhibition at 1 µM under setting [1] amounted to 17% and the inhibition at 1 µM under setting [2] was 28%.
Take `Cc1cc2c(cc1Cc1ccc(C(=O)NCc3ccccc3Sc3ccccc3CO)o1)C(C)(C)CCC2(C)C`: the inhibition at 1 µM by setting is: under setting [1], 51%; under setting [2], 54%.
For the compound `Cc1cc2c(cc1Cc1ccc(C(=O)NCCCN(CCO)CCO)o1)C(C)(C)CCC2(C)C`, the inhibition at 1 µM under setting [1] was determined as 35% and the inhibition at 1 µM under setting [2] stood at 36%.
As for `Cc1cc2c(cc1Cc1ccc(C(=O)N3CCN(c4ccc(Cl)cc4)C(C)C3)o1)C(C)(C)CCC2(C)C` (stereo not shown), the inhibition at 1 µM by setting is: under setting [1], -18%; under setting [2], -7%.
